Measurements: ChEMBL document CHEMBL1201862, “PubChem BioAssay data set” (2004)
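Each compound was tested at five concentrations against cells in 96-well plates for 48 hours. At the GI50, growth is halved.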 Active and inactive are the calls of the source. No stated cut-off is given here; in the data, active = GI50 up to about 1.1 µM and inactive = higher.

Key:
Assay in all cases: DTP human tumour cell line panel, 48 h
[1] = test system: MOLT-4
[2] = test system: MCF7
[3] = test system: OVCAR-8
[4] = test system: OVCAR-5
[5] = test system: NCI-H522
[6] = test system: HOP-92
[7] = test system: OVCAR-4
[8] = test system: Malme-3M
[9] = test system: SNB-75
[10] = test system: HT-29
[11] = test system: CCRF-CEM
[12] = test system: TK-10
[13] = test system: EKVX
[14] = test system: ACHN
[15] = test system: PC-3
[16] = test system: RPMI-8226
[17] = test system: HCT-15
[18] = test system: A498
[19] = test system: SK-MEL-2
[20] = test system: M19-MEL

Row | Structure (SMILES) | GI50 [1] | GI50 [2] | GI50 [3] | GI50 [4] | GI50 [5] | GI50 [6] | GI50 [7] | GI50 [8] | GI50 [9] | GI50 [10] | GI50 [11] | GI50 [12] | GI50 [13] | GI50 [14] | GI50 [15] | GI50 [16] | GI50 [17] [µM] | GI50 [18] | GI50 [19] | GI50 [20]
1 | CCOc1ccc(N/C(Cl)=C(Cl)\C(=C(\Nc2ccc(OCC)cc2)n2nnc3ccccc32)[N+](=O)[O-])cc1 | 2.85 µM (inactive) | 5.89 µM (inactive) | 1.74 µM (inactive) | 9.44 µM (inactive) | 1.08 µM (active) | 2.25 µM (inactive) | 10.3 µM (inactive) | 2.32 µM (inactive) | 18.3 µM (inactive) | 1.75 µM (inactive) | 1.3 µM (inactive) | 4.49 µM (inactive) | 12.2 µM (inactive) | 4.03 µM (inactive) | 7.4 µM (inactive) | 4.18 µM (inactive) | 1.91 | 20.4 µM (inactive) | 16.7 µM (inactive) | 
2 | Cc1occc1C(=S)Nc1ccc(Cl)c(/C=N/OC(C)(C)C)c1 | 9.51 µM (inactive) | 18.1 µM (inactive) | 18.9 µM (inactive) | 15 µM (inactive) | 11.7 µM (inactive) | 13 µM (inactive) | 18.3 µM (inactive) | 21.8 µM (inactive) | 21.8 µM (inactive) | 13.7 µM (inactive) | 17.8 µM (inactive) | 21.9 µM (inactive) | 18.4 µM (inactive) | 14.6 µM (inactive) | 16 µM (inactive) | 16.7 µM (inactive) | 15 | 20.4 µM (inactive) | 17.9 µM (inactive) | 
3 | Cc1ccc(S(=O)(=O)CC(=O)CC(=O)C(=O)Nc2cccc(C(F)(F)F)c2)cc1 | > 100 µM (inactive) |  |  |  | > 100 µM (inactive) | > 100 µM (inactive) |  | 81.3 µM (inactive) | 47.6 µM (inactive) | 55.3 µM (inactive) | > 100 µM (inactive) | > 100 µM (inactive) | > 100 µM (inactive) | > 100 µM (inactive) |  | > 100 µM (inactive) | > 100 |  | > 100 µM (inactive) | > 100 µM (inactive)
4 | CCN(CC)CCCCC1CCN(CC(=O)N2CC(C)C(=O)Nc3ccccc32)CC1 (centres undefined) | > 100 µM (inactive) |  |  | > 100 µM (inactive) |  | > 100 µM (inactive) | > 100 µM (inactive) | > 100 µM (inactive) |  | > 100 µM (inactive) | > 100 µM (inactive) |  |  | > 100 µM (inactive) |  | > 100 µM (inactive) | > 100 | > 100 µM (inactive) |  | > 100 µM (inactive)
5 | Nc1nc(Cl)c(N)c(NCC2(CO)CC2)n1 | > 100 µM (inactive) | > 100 µM (inactive) | > 100 µM (inactive) | > 100 µM (inactive) | > 100 µM (inactive) | > 100 µM (inactive) | > 100 µM (inactive) | > 100 µM (inactive) | > 100 µM (inactive) | > 100 µM (inactive) | > 100 µM (inactive) | > 100 µM (inactive) | > 100 µM (inactive) | > 100 µM (inactive) | > 100 µM (inactive) | > 100 µM (inactive) | > 100 | > 100 µM (inactive) | > 100 µM (inactive) | 
6 | CCOC(=O)C1=C(C)N(c2ccccc2)C2=C(C(=O)N(c3ccccc3)C2c2ccccc2)C1c1ccccc1 (centres undefined) | > 100 µM (inactive) |  | > 100 µM (inactive) | > 100 µM (inactive) | > 100 µM (inactive) | > 100 µM (inactive) | > 100 µM (inactive) | > 100 µM (inactive) | > 100 µM (inactive) | > 100 µM (inactive) | > 100 µM (inactive) | > 100 µM (inactive) | > 100 µM (inactive) | > 100 µM (inactive) |  | > 100 µM (inactive) |  |  | > 100 µM (inactive) | > 100 µM (inactive)
7 | [O-][n+]1onc(-c2ccccc2)c1CN1CCOCC1 | 23.3 µM (inactive) | > 100 µM (inactive) | > 100 µM (inactive) | > 100 µM (inactive) | 26.4 µM (inactive) | > 100 µM (inactive) | 10.4 µM (inactive) | > 100 µM (inactive) | > 100 µM (inactive) | > 100 µM (inactive) | 22.8 µM (inactive) | > 100 µM (inactive) | > 100 µM (inactive) | > 100 µM (inactive) | 77.8 µM (inactive) | 76.6 µM (inactive) | 72.9 | 61.9 µM (inactive) | > 100 µM (inactive) | 
8 | CCOC1(COP(=O)(OCc2ccccc2)OCc2ccccc2)COC(COP(=O)(OCc2ccccc2)OCc2ccccc2)(OCC)CO1 (centres undefined) | 17.4 µM (inactive) |  | 59 µM (inactive) | > 100 µM (inactive) | > 100 µM (inactive) | 2.99 µM (inactive) | 4.61 µM (inactive) | > 100 µM (inactive) |  | > 100 µM (inactive) | > 100 µM (inactive) | > 100 µM (inactive) | 2.32 µM (inactive) | 7.82 µM (inactive) |  | 74.6 µM (inactive) | > 100 |  | > 100 µM (inactive) | 15.5 µM (inactive)
